Measurements taken from ChEMBL document CHEMBL1125482, “Pharmacokinetics of catechol cephalosporins. The effect of incorporating substituents into the catechol moiety on pharmacokinetics in a marmoset model” (J Med Chem, 1992).
≈ marks a conversion by molar mass, not a printed value.

Assays:
in vivo = conditions: callithrix, serum, iv
Description: Serum T1/2 in marmosets (IV dose)

Canis familiaris = species on record: Canis familiaris; conditions: dog, in vivo, iv
Homo sapiens = species on record: Homo sapiens; assay: Compound was tested for serum protein binding in human blood; format: functional
[1] = Urinary recovery in marmosets (IV dose); format: ADME, organism-based; conditions: callithrix, urine, read-out: Recovery
Mus musculus = assay: Compound was evaluated in vivo for antibacterial activity against Pseudomonas aeruginosa (strain 101010) in mice; format: functional; conditions: read-out: PD50
Enterobacter cloacae [2] = assay: microbe, parasite or virus in culture
Description: Compound was tested for antimicrobial activity against Enterobacter cloacae constitutive derepressed type I beta-lactamase producer (P99+) strain

Staphylococcus aureus [3] = assay: microbe, parasite or virus in culture
Description: Compound was tested for antimicrobial activity against Staphylococcus aureus penicillin sensitive Staphylococcus aureus (147N) strain

Staphylococcus aureus [4] = assay: microbe, parasite or virus in culture; remark: listed apart in the source
Description: Compound was tested for antimicrobial activity against Staphylococcus aureus Oxford strain

Enterobacter cloacae [5] = assay: microbe, parasite or virus in culture; remark: listed apart in the source
Description: Compound was tested for antimicrobial activity against Enterobacter cloacae inducible type I beta-lactamase producer (P99-) strain

Pseudomonas aeruginosa [6] = assay: microbe, parasite or virus in culture
Description: Compound was tested for antimicrobial activity against Pseudomonas aeruginosa constitutive derepressed type I beta-lactamase producer (18SH) strain

Pseudomonas aeruginosa [7] = assay: microbe, parasite or virus in culture; remark: listed apart in the source
Description: Compound was tested for antimicrobial activity against Pseudomonas aeruginosa PU21 strain

Escherichia coli [8] = assay: microbe, parasite or virus in culture
Description: Compound was tested for antimicrobial activity against Escherichia coli DC0 strain (parent organism)

Escherichia coli [9] = assay: microbe, parasite or virus in culture; remark: listed apart in the source
Description: Compound was tested for antimicrobial activity against Escherichia coli DC2 strain (permeability mutant)

Description for physchem: Dissociation constant (pKa)

half-life (in vivo) | AUC (Canis familiaris) | pKa (physchem) | SMILES | also measured
2.8 h | 137.3 mg/h/L | 5.6 | CCn1cc(C(=O)NCC2=C(C(=O)O)N3C(=O)[C@@H](NC(=O)/C(=N\OC(C)(C)C(=O)O)c4csc(N)n4)[C@H]3SC2)c(=O)c2cc(O)c(O)nc21 | –
2.9 h | 181.7 mg/h/L | 5.5 | CC(C)(O/N=C(\C(=O)N[C@@H]1C(=O)N2C(C(=O)O)=C(CNC(=O)c3cc(O)c(O)c([N+](=O)[O-])c3)CS[C@H]12)c1csc(N)n1)C(=O)O | Activity (Homo sapiens): 97.5%; dose excreted [1]: 47.3%
0.5 h | 10.9 mg/h/L | 7.85 | CCN(CC1=C(C(=O)O)N2C(=O)[C@@H](NC(=O)/C(=N\OC(C)(C)C(=O)O)c3csc(N)n3)[C@H]2SC1)C(=O)c1cc(O)c(O)c(F)c1 | –
0.9 h | 16.4 mg/h/L | 7.4 | CCN(CC1=C(C(=O)O)N2C(=O)[C@@H](NC(=O)/C(=N\OC(C)(C)C(=O)O)c3csc(N)n3)[C@H]2SC1)C(=O)c1cc(O)c(O)c(Cl)c1 | –
3.95 h | 243.9 mg/h/L | – | CC(C)(O/N=C(\C(=O)N[C@@H]1C(=O)N2C(C(=O)O)=C(CNC(=O)c3cc4ccc(O)c(O)c4oc3=O)CS[C@H]12)c1csc(N)n1)C(=O)O | Activity (Homo sapiens): 99.6%; dose excreted [1]: 6.9%
0.6 h | 7.6 mg/h/L | 8.25 | CCN(CC1=C(C(=O)O)N2C(=O)[C@@H](NC(=O)/C(=N\OC(C)(C)C(=O)O)c3csc(N)n3)[C@H]2SC1)C(=O)c1cc(O)c(O)cc1F | –
2.2 h | 129.8 mg/h/L | 6.5 | CCn1nc(C(=O)NCC2=C(C(=O)O)N3C(=O)[C@@H](NC(=O)/C(=N\OC(C)(C)C(=O)O)c4csc(N)n4)[C@H]3SC2)c(=O)c2cc(O)c(O)cc21 | Activity (Homo sapiens): 97.8%; dose excreted [1]: 26.9%
1.6 h | 78 mg/h/L | 7.8 | CC(C)(O/N=C(\C(=O)N[C@@H]1C(=O)N2C(C(=O)O)=C(CNC(=O)c3cc(O)c(O)cc3F)CS[C@H]12)c1csc(N)n1)C(=O)O | –
5.7 h | 645.7 mg/h/L | 7 | CCn1cc(C(=O)NCC2=C(C(=O)O)N3C(=O)[C@@H](NC(=O)/C(=N\OC(C)(C)C(=O)O)c4csc(N)n4)[C@H]3SC2)c(=O)c2c(Cl)c(O)c(O)cc21 | –
– | 1.6 mg/h/L | – | CC(C)(O/N=C(\C(=O)N[C@@H]1C(=O)N2C(C(=O)O)=C(CNC(=O)Cc3cc(O)c(O)cc3Br)CS[C@H]12)c1csc(N)n1)C(=O)O | –
1.3 h | 57.6 mg/h/L | 6.9 | CCO/N=C(\C(=O)N[C@@H]1C(=O)N2C(C(=O)O)=C(CNC(=O)c3cc(O)c(O)c(Cl)c3)CS[C@H]12)c1csc(N)n1 | –
1 h | 41 mg/h/L | 5.8 | CCN(CC1=C(C(=O)O)N2C(=O)[C@@H](NC(=O)/C(=N\OC(C)(C)C(=O)O)c3csc(N)n3)[C@H]2SC1)C(=O)c1cc(O)c(O)c(C#N)c1 | –
1.6 h | 49.2 mg/h/L | 5.8 | CCN(CC1=C(C(=O)O)N2C(=O)[C@@H](NC(=O)/C(=N\OC(C)(C)C(=O)O)c3csc(N)n3)[C@H]2SC1)C(=O)c1cc(O)c(O)c([N+](=O)[O-])c1 | –
1.2 h | 107 mg/h/L | 5.5 | CCO/N=C(\C(=O)N[C@@H]1C(=O)N2C(C(=O)O)=C(CNC(=O)c3cc(O)c(O)c(C#N)c3)CS[C@H]12)c1csc(N)n1 | –
2.9 h | 131 mg/h/L | 7.65 | CC(C)(O/N=C(\C(=O)N[C@@H]1C(=O)N2C(C(=O)O)=C(CNC(=O)c3ccc(O)c(O)c3Cl)CS[C@H]12)c1csc(N)n1)C(=O)O | –
0.9 h | 51.9 mg/h/L | 8.35 | CC(C)(O/N=C(\C(=O)N[C@@H]1C(=O)N2C(C(=O)O)=C(CNC(=O)c3cc(O)c(O)c(O)c3)CS[C@H]12)c1csc(N)n1)C(=O)O | MIC (Pseudomonas aeruginosa [6]): 8.1 µg/mL (≈ 12.7 µM); MIC (Pseudomonas aeruginosa [7]): 0.9 µg/mL (≈ 1.41 µM)
0.65 h | 25 mg/h/L | 7.4 | CCO/N=C(\C(=O)N[C@@H]1C(=O)N2C(C(=O)O)=C(CNC(=O)c3cc(O)c(O)c(F)c3)CS[C@H]12)c1csc(N)n1 | –
3.5 h | 116.8 mg/h/L | 7.45 | CC(C)(O/N=C(\C(=O)N[C@@H]1C(=O)N2C(C(=O)O)=C(CNC(=O)c3cc(O)c(O)c(F)c3)CS[C@H]12)c1csc(N)n1)C(=O)O | –
1.5 h | 61.6 mg/h/L | 7.7 | CC(C)(O/N=C(\C(=O)N[C@@H]1C(=O)N2C(C(=O)O)=C(/C=C/c3cc(O)c(O)c(Br)c3)CS[C@H]12)c1csc(N)n1)C(=O)O | –
1 h | 24.2 mg/h/L | – | CC(C)(O/N=C(\C(=O)N[C@@H]1C(=O)N2C(C(=O)O)=C(CNC(=O)/C=C/c3cc(O)c(O)cc3Br)CS[C@H]12)c1csc(N)n1)C(=O)O | –
1.7 h | 67.7 mg/h/L | 6.5 | CC(C)(O/N=C(\C(=O)N[C@@H]1C(=O)N2C(C(=O)O)=C(COC(=O)c3cc(O)c(O)c(Br)c3)CS[C@H]12)c1csc(N)n1)C(=O)O | –
0.8 h | 48.9 mg/h/L | 5.5 | CCO/N=C(\C(=O)N[C@@H]1C(=O)N2C(C(=O)O)=C(CNC(=O)c3cc(O)c(O)c([N+](=O)[O-])c3)CS[C@H]12)c1csc(N)n1 | –
4.6 h | 287 mg/h/L | 6 | CCOC(=O)c1nc2cc(O)c(O)cc2nc1C(=O)NCC1=C(C(=O)O)N2C(=O)[C@@H](NC(=O)/C(=N\OC(C)(C)C(=O)O)c3csc(N)n3)[C@H]2SC1 | –
0.9 h | 13.4 mg/h/L | 8.1 | CC(C)(O/N=C(\C(=O)N[C@@H]1C(=O)N2C(C(=O)O)=C(CNC(=O)c3cc(O)c(O)cc3Br)CS[C@H]12)c1csc(N)n1)C(=O)O | –
2.8 h | 122.3 mg/h/L | – | CC(C)(O/N=C(\C(=O)N[C@@H]1C(=O)N2C(C(=O)O)=C(CNC(=O)Nc3cc(O)c(O)c(Br)c3)CS[C@H]12)c1csc(N)n1)C(=O)O | –
0.7 h | 4.4 mg/h/L | – | CC(C)(O/N=C(\C(=O)N[C@@H]1C(=O)N2C(C(=O)O)=C(CNCc3cc(O)c(O)c(Br)c3)CS[C@H]12)c1csc(N)n1)C(=O)O | –
0.35 h | 2 mg/h/L | 6.9 | CCO/N=C(\C(=O)N[C@@H]1C(=O)N2C(C(=O)O)=C(CNC(=O)c3cc(O)c(O)cc3Br)CS[C@H]12)c1csc(N)n1 | –
1.4 h | 54.5 mg/h/L | 6.9 | CCO/N=C(\C(=O)N[C@@H]1C(=O)N2C(C(=O)O)=C(CNC(=O)c3cc(Cl)c(O)c(O)c3Cl)CS[C@H]12)c1csc(N)n1 | –
0.5 h | 46.7 mg/h/L | – | CO/N=C(\C(=O)N[C@@H]1C(=O)N2C(C(=O)O)=C(COC(C)=O)CS[C@H]12)c1csc(N)n1 [CEFOTAXIME] | –

SMILES | half-life (in vivo) | AUC (Canis familiaris) | pKa (physchem) | also measured
CC(C)(O/N=C(\C(=O)N[C@@H]1C(=O)N2C(C(=O)O)=C(CNC(=O)c3cc(Cl)c(O)c(O)c3Cl)CS[C@H]12)c1csc(N)n1)C(=O)O | 8.2 h | 461 mg/h/L | 6.3 | Activity (Homo sapiens): 98.7%; dose excreted [1]: 16.2%; ED50 (Mus musculus): 3 µg/kg
CC(C)(O/N=C(\C(=O)N[C@@H]1C(=O)N2C(C(=O)O)=C(CNC(=O)c3cc(O)c(O)c(C#N)c3)CS[C@H]12)c1csc(N)n1)C(=O)O | 5.3 h | 394.5 mg/h/L | 5.5 | Activity (Homo sapiens): 96.7%; dose excreted [1]: 8.7%; ED50 (Mus musculus): 13 µg/kg
CC(C)(O/N=C(\C(=O)N[C@@H]1C(=O)N2C(C(=O)O)=C(CNC(=O)c3cc(O)c(O)c(Br)c3)CS[C@H]12)c1csc(N)n1)C(=O)O | 2.9 h | 137.1 mg/h/L | 6.9 | Activity (Homo sapiens): 99.2%; MIC (Enterobacter cloacae [2]): 2 µg/mL (≈ 2.86 µM); MIC (Staphylococcus aureus [3]): 16 µg/mL (≈ 22.9 µM); MIC (Staphylococcus aureus [4]): 16 µg/mL (≈ 22.9 µM); dose excreted [1]: 13.9%; MIC (Enterobacter cloacae [5]): 0.03 µg/mL (≈ 0.0429 µM); ED50 (Mus musculus): 24 µg/kg; MIC (Pseudomonas aeruginosa [6]): 0.015 µg/mL (≈ 0.0214 µM); MIC (Pseudomonas aeruginosa [7]): < 0.008 µg/mL
CC(C)(O/N=C(\C(=O)N[C@@H]1C(=O)N2C(C(=O)O)=C(CNC(=O)c3cc(O)c(O)c(Cl)c3)CS[C@H]12)c1csc(N)n1)C(=O)O | 4.6 h | 638.3 mg/h/L | 7 | ED50 (Mus musculus): 4 µg/kg
CCN(CC1=C(C(=O)O)N2C(=O)[C@@H](NC(=O)/C(=N\OC(C)(C)C(=O)O)c3csc(N)n3)[C@H]2SC1)C(=O)c1cc(O)c(O)c(Br)c1 | 1 h | 21.8 mg/h/L | 7.3 | MIC (Enterobacter cloacae [2]): 1 µg/mL (≈ 1.37 µM); MIC (Escherichia coli [8]): 0.015 µg/mL (≈ 0.0206 µM); MIC (Staphylococcus aureus [3]): 32 µg/mL (≈ 44 µM); MIC (Escherichia coli [9]): 0.015 µg/mL (≈ 0.0206 µM); MIC (Staphylococcus aureus [4]): 32 µg/mL (≈ 44 µM); MIC (Enterobacter cloacae [5]): 0.25 µg/mL (≈ 0.344 µM); MIC (Pseudomonas aeruginosa [6]): 0.06 µg/mL (≈ 0.0825 µM); MIC (Pseudomonas aeruginosa [7]): 0.03 µg/mL (≈ 0.0412 µM)
CCO/N=C(\C(=O)N[C@@H]1C(=O)N2C(C(=O)O)=C(CNC(=O)c3cc(O)c(O)c(Br)c3)CS[C@H]12)c1csc(N)n1 | 0.7 h | 17 mg/h/L | 6.9 | MIC (Enterobacter cloacae [2]): 8 µg/mL (≈ 12.5 µM); MIC (Escherichia coli [8]): < 0.008 µg/mL; MIC (Staphylococcus aureus [3]): 4 µg/mL (≈ 6.24 µM); MIC (Staphylococcus aureus [4]): 2 µg/mL (≈ 3.12 µM); MIC (Enterobacter cloacae [5]): 0.015 µg/mL (≈ 0.0234 µM); MIC (Pseudomonas aeruginosa [6]): 4 µg/mL (≈ 6.24 µM); MIC (Pseudomonas aeruginosa [7]): 0.06 µg/mL (≈ 0.0935 µM)
CCO/N=C(\C(=O)N[C@@H]1C(=O)N2C(C(=O)O)=C(CNC(=O)c3ccc(O)c(O)c3)CS[C@H]12)c1csc(N)n1 | 0.8 h | 4.3 mg/h/L | 8.5 | MIC (Enterobacter cloacae [2]): 64 µg/mL (≈ 114 µM); MIC (Escherichia coli [8]): 0.06 µg/mL (≈ 0.107 µM); MIC (Staphylococcus aureus [3]): 4 µg/mL (≈ 7.11 µM); MIC (Escherichia coli [9]): 0.08 µg/mL (≈ 0.142 µM); MIC (Staphylococcus aureus [4]): 2 µg/mL (≈ 3.56 µM); MIC (Enterobacter cloacae [5]): 0.5 µg/mL (≈ 0.889 µM); MIC (Pseudomonas aeruginosa [6]): 64 µg/mL (≈ 114 µM); MIC (Pseudomonas aeruginosa [7]): 0.25 µg/mL (≈ 0.444 µM)
